# Experimental data reported in ChEMBL document CHEMBL1129301, “Synthesis and biological evaluation of DL-4,4-difluoroglutamic acid and DL-gamma,gamma-difluoromethotrexate” (J Med Chem, 1996).
# Experiments:
# [1] = system: CCRF-CEM; test: Compound was evaluated for growth inhibition of parental CCRF-CEM during continuous (120 h) exposure to MTX; assay type: functional; settings: Homo sapiens, read-out: ED50 (the source's name)
# [2] = system: CCRF-CEM; test: Growth inhibition of CCRF-CEM subline resistant to MTX solely as a result of decreased polyglutamylation during continuous (120 h) exposure.; assay type: functional; settings: Homo sapiens, read-out: ED50 (the source's name)
# [3] = system: CCRF-CEM; test: Growth inhibition of CCRF-CEM subline resistant to MTX solely as a result of a 25-fold increase in wild-type DHFR activity during continuous (120 h) exposure to MTX; assay type: functional; settings: Homo sapiens, read-out: ED50 (the source's name)
# [4] = system: CCRF-CEM; test: Growth inhibition of CCRF-CEM subline resistant to MTX solely as a result of decreased MTX influx during continuous (120 h) exposure.; assay type: functional; settings: Homo sapiens, read-out: ED50 (the source's name)
# [5] = target: T1, Dihydrofolate reductase (Homo sapiens, UniProt P00374); test: Inhibitory activity against purified human dihydrofolate reductase (DHFR) in human leukemia cells (CCRF-CEM)
# T1 sequence (P00374 whole entry): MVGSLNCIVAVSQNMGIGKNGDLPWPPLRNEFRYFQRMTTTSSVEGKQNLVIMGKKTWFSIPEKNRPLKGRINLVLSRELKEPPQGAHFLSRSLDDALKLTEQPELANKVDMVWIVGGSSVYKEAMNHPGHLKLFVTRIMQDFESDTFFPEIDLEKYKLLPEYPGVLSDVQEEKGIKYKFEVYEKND
# [6] = system: CCRF-CEM; test: cells; settings: Homo sapiens, 3 h
smiles,measurement,setting,value
CN(Cc1cnc2nc(N)nc(N)c2n1)c1ccc(C(=O)NC(CC(F)(F)C(=O)O)C(=O)O)cc1 (stereo not drawn),EC50,[1],29 nM
same,EC50,[2],24.3 nM
same,EC50,[3],700 nM
same,EC50,[4],2150 nM
same,IC50,[5],1530 nM
Nc1nc(N)c2nc(CNc3ccc(C(=O)N[C@@H](CCC(=O)O)C(=O)O)cc3)cnc2n1 [AMINOPTERIN],IC50,[6],3000 nM
CN(Cc1cnc2nc(N)nc(N)c2n1)c1ccc(C(=O)N[C@@H](CCC(=O)O)C(=O)O)cc1 [METHOTREXATE],EC50,[3],655 nM
same,EC50,[4],2550 nM
